# Experimental data published in patent US9179674B2, “Macrocyclic picolinamide compounds with fungicidal activity” (DOW AGROSCIENCES LLC, priority 2013, dated 2015).
# Read-outs that look alike come from different tables or passages of the source.
# What was measured:
# Assay type in all cases: in vivo
# Puccinia triticina = assay: Wheat Brown Rust fungicidal activity (PUCCRT); conditions: Puccinia triticina; for pest or weed control at 100 ppm: rate 100 ppm; for pest or weed control at 121.5 g/ha: rate 121.5 g/H
# Procedure, shortened: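 Yuma wheat seedlings at first-leaf stage sprayed to run-off (acetone solution in water with 110 ppm Triton X-100) or track-sprayed as EC with 0.1% Trycol 5941; inoculated with P. triticina spores before or after treatment. Overnight dark dew at 22° C., then greenhouse 24° C.; disease severity 0–100% gives percent control vs untreated.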
# [1] = system: Mycosphaerella graminicola; Anamorph: Septoria tritici; assay: Leaf Blotch of Wheat fungicidal activity (SEPTTR); conditions: Zymoseptoria tritici; for pest or weed control at 100 ppm: rate 100 ppm; for pest or weed control at 121.5 g/ha: rate 121.5 g/H
# Procedure, shortened: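 Acetone solutions diluted with nine volumes of water containing 110 ppm Triton X-100, sprayed to run-off on first-leaf wheat seedlings (Yuma), inoculated with S. tritici before or after treatment. Plants held in dew chambers, then in a 20 °C greenhouse. Disease severity (0–100%) scored when untreated plants fully symptomatic; % control relative to untreated.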
# Phakopsora pachyrhizi = assay: Asian Soybean Rust fungicidal activity (PHAKPA); conditions: 25 ppm; for Disease Control PHAKPA 1DP: 1 Day Protectant; for Disease Control PHAKPA 3DC: 3 Day Curative
# Experimental: Evaluation of Fungicidal Activity: Asian Soybean Rust (Phakopsora pachyrhizi; Bayer Code PHAKPA)
# Technical grades of materials were dissolved in acetone, which were then mixed with nine volumes of water containing 0.011% Tween 20. The fungicide solutions were applied onto soybean seedlings using an automated booth sprayer to run-off. All sprayed plants were allowed to air dry prior to further handling.
# Soybean plants (variety Williams 82) were grown in soil-less Metro mix, with one plant per pot. Two weeks old seedlings were used for testing. Plants were inoculated either 3 days prior to or 1 day after fungicide treatments. Plants were incubated for 24 h in a dark dew room at 22° C. and 100% RH then transferred to a growth room at 23° C. for disease to develop. Disease severity was assessed on the sprayed leaves.
# [2] = 24 h, 1 Day Protectant, read-out: Disease control PUCCRT 1DP
# [3] = 72 h, 3 Day Curative, read-out: Disease control PUCCRT 3DC
# [4] = 24 h, 1 Day Protectant, read-out: Disease control SEPTTR 1DP
# [5] = 72 h, 3 Day Curative, read-out: Disease control SEPTTR 3DC
SMILES,pest or weed control at 100 ppm (Puccinia triticina; [2]) [%],pest or weed control at 121.5 g/ha (Puccinia triticina; [2]) [%],pest or weed control at 100 ppm (Puccinia triticina; [3]) [%],pest or weed control at 121.5 g/ha (Puccinia triticina; [3]) [%],"pest or weed control at 100 ppm [1, 4] [%]","pest or weed control at 121.5 g/ha [1, 4] [%]","pest or weed control at 100 ppm [1, 5] [%]","pest or weed control at 121.5 g/ha [1, 5] [%]",Disease Control PHAKPA 1DP (Phakopsora pachyrhizi),Disease Control PHAKPA 3DC (Phakopsora pachyrhizi)
COc1ccnc(C(=O)N[C@H]2COC[C@H](CCC(C)C)[C@@H](OCC(C)C)[C@H](C)OC2=O)c1OCOC(C)=O [Compound F106],80 to 100,80 to 100,80 to 100,80 to 100,80 to 100,80 to 100,80 to 100,80 to 100,A (80-100),A (80-100)
COc1ccnc(C(=O)N[C@H]2COC[C@H](Cc3cc(F)c(F)c(F)c3)[C@@H](OCC(C)C)[C@H](C)OC2=O)c1OCOC(C)=O [Compound F109],80 to 100,80 to 100,80 to 100,80 to 100,80 to 100,80 to 100,80 to 100,80 to 100,A (80-100),B (More than 0-Less than 80)
